Assay results: patent publication US8012975B2, “Antitumoral analogs of ET-743” (Pharma Mar, S.A., priority 2000, dated 2011)

What was measured:
PANC-1 = test: Cytotoxic activity (M) panel, Pancreas PANC-1; details: Homo sapiens, PANC-1, read-out: CYTOTOXIC ACTIVITY (M) PANC-1
OSA-FH = test: Cytotoxic activity (M) panel, Osteosarcoma OSA-FH; details: read-out: CYTOTOXIC ACTIVITY (M) OSA-FH
5637 = test: Cytotoxic activity (M) panel, Bladder 5637; details: read-out: CYTOTOXIC ACTIVITY (M) 5637
MEL-28 = test: Cytotoxic activity (M) panel, Melanoma Mel-28; details: Homo sapiens, SK-MEL-28, read-out: CYTOTOXIC ACTIVITY (M) Mel-28
FADU = test: Cytotoxic activity (M) panel, Pharnynx FADU; details: Homo sapiens, read-out: CYTOTOXIC ACTIVITY (M) FADU
HT-29 = test: Cytotoxic activity (M) panel, Colon HT-29; details: Homo sapiens, HT-29, read-out: CYTOTOXIC ACTIVITY (M) HT-29
SW-694 = test: Cytotoxic activity (M) panel, Fibrosarcoma SW-694; details: read-out: CYTOTOXIC ACTIVITY (M) SW-694
Hs746t = test: Cytotoxic activity (M) panel, Gastric Hs746t; details: Homo sapiens, read-out: CYTOTOXIC ACTIVITY (M) Hs746t
786-O = test: Cytotoxic activity (M) panel, Renal 786-O; details: Homo sapiens, 786-0, read-out: CYTOTOXIC ACTIVITY (M) 786-O
CHSA = test: Cytotoxic activity (M) panel, Chondrosarcoma CHSA; details: read-out: CYTOTOXIC ACTIVITY (M) CHSA
LNCAP = test: Cytotoxic activity (M) panel, Prostate LNCAP; details: Homo sapiens, read-out: CYTOTOXIC ACTIVITY (M) LNCAP
SK-HEP-1 = test: Cytotoxic activity (M) panel, Liver SK-HEP-1; details: Homo sapiens, SK-HEP1, read-out: CYTOTOXIC ACTIVITY (M) SK-HEP-1
SK-OV-3 = test: Cytotoxic activity (M) panel, Ovary SK-OV-3; details: Homo sapiens, SK-OV-3, read-out: CYTOTOXIC ACTIVITY (M) SK-OV-3
DU-145 = test: Cytotoxic activity (M) panel, Prostate DU-145; details: Homo sapiens, DU-145, read-out: CYTOTOXIC ACTIVITY (M) DU-145

For `COc1c(C)cc2c(c1O)[C@@H]1C3Cc4c(OC(C)=O)c(C)c5c(c4[C@H](COC(=O)/C=C/c4ccccc4)N3[C@@H](O)[C@H](C2)N1C)OCO5` (stereo partly drawn) [drawing 234], which IC50 (PANC-1) is on record?
The IC50 was 9.47e-09 M.

And the IC50 (OSA-FH)?
Its IC50 is 5.26e-07 M.

What about the IC50 (NCI-H187) of the same molecule?
The IC50 was 0.0778 pM.

And the “CYTOTOXIC ACTIVITY (M) A549” value (A549)?
Its value is 1.56 to 05 M.

What about the IC50 (MX-1) of the same molecule?
The IC50 was 0.725 pM.

And the IC50 5637?
Its IC50 is 1.71e-08 M.

And the IC50 (MEL-28)?
Its IC50 is 5.89e-08 M.

And the IC50 (Y-79)?
The IC50 was 0.0778 pM.

And the IC50 (FADU)?
The IC50 was 2.46e-08 M.

What about the IC50 (HT-29) of the same molecule?
Its IC50 is 2.96e-07 M.

What about the IC50 (SW-694) of the same molecule?
The IC50 was 6.69e-06 M.

What about the IC50 (Hs746t) of the same molecule?
The IC50 was 1.24e-09 M.

What about the IC50 (786-O) of the same molecule?
Its IC50 is 5.26e-12 M.

What about the IC50 (CHSA) of the same molecule?
The IC50 was 4.49e-08 M.

What about the IC50 (LNCAP) of the same molecule?
Its IC50 is 6.83e-08 M.

And the IC50 (SK-HEP-1)?
Its IC50 is 1.94e-09 M.

What about the IC50 (SK-OV-3) of the same molecule?
Its IC50 is 7.78e-08 M.

And the IC50 (DU-145)?
Its IC50 is 1.56e-06 M.
